Laboratory results published in EP4678644A1, “SUBSTITUTED DIHYDROTHIENOPYRIMIDINE COMPOUND, PREPARATION METHOD THEREFOR, AND USE THEREOF” (Shanghai Yidi Biotechnology Co., Ltd., priority 2023, dated 2024).

Legend:
[1] = biological target: T1, PDE4B2 (Homo sapiens, UniProt Q07343); assay: PDE4B2 enzyme experiment (AMP-glo, cAMP substrate); assay type: biochemical
T1 construct: expressed in transfected cells; host or cells: Flp-In-293 (Flpin-293-PDE4B2 [sic])

[2] = biological target: PDE4D2 (Homo sapiens, UniProt Q08499); assay: PDE4D2 enzyme experiment (AMP-glo, cAMP substrate); assay type: biochemical; settings: read-out: PDE4D2 IC50 Binding
Text: Inhibition rate % ^= (1 - (RLUpositive control - RLUcompound)/(RLUpositive control - RLUnegative control)) * 100.

[3] = biological target: T1, PDE4B2; assay: PDE4B2 cell experiment (cAMP, Eu-cAMP tracer / Ulight-anti-cAMP); assay type: cell-based; settings: Flpin-293-PDE4B2 cells; for Cell Inhibition% @10 nM / inhibition at 0.01 µM: 10 nM; for Cell Inhibition% @100 nM / inhibition at 0.1 µM: 100 nM; for IC50: Foskolin

PDE4D2, sequence (Q08499 303-809 limits assumed): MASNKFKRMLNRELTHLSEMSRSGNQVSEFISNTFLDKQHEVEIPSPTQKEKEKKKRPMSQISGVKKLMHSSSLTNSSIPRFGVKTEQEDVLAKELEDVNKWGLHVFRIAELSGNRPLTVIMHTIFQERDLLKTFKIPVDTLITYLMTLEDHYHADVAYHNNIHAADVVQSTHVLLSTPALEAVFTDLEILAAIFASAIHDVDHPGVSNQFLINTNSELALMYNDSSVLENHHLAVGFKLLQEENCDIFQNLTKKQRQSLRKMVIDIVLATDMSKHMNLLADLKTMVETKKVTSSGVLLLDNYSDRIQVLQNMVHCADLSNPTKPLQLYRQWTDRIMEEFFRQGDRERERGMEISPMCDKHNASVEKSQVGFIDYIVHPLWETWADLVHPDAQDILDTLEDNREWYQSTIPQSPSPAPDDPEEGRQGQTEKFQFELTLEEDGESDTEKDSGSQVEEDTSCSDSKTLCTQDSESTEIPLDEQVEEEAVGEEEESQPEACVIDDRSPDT
T1 sequence (Q07343 1-564 isoform Q07343-2): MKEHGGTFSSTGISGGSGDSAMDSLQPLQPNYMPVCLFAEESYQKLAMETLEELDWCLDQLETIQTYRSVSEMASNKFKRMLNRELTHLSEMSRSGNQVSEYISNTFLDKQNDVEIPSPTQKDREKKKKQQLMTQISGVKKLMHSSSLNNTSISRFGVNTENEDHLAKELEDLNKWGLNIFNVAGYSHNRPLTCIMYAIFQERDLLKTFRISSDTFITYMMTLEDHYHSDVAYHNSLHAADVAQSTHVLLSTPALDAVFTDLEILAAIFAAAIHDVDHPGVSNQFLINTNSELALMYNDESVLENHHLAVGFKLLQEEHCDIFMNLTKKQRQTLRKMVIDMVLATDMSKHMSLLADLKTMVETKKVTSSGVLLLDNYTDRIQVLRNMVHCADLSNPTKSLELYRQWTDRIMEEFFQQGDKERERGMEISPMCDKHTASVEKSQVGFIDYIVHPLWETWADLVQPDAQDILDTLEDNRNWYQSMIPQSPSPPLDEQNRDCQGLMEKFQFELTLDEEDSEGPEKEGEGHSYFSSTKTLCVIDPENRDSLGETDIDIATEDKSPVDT

| Structure (SMILES) | IC50 [1] [nM] | IC50 [2] [nM] | Cell Inhibition% @1 nM ([3]; 1 nM) [%] | Cell Inhibition% @10 nM [3] [%] | Cell Inhibition% @100 nM [3] [%] | IC50 [3] [nM] | inhibition at 0.001 µM ([3]; 1 nM) [%] | inhibition at 0.01 µM [3] [%] | inhibition at 0.1 µM [3] [%] |
| --- | --- | --- | --- | --- | --- | --- | --- | --- | --- |
| [O-][S+]1CCc2nc(N3CC[C@H]4c5ccc(Cl)cc5OC[C@H]4C3)nc(NC3(CO)CCC3)c21 (some centres unmarked) [Compound 116] | 3.01 | 12.4 | 2.17 | 16.91 | 73.36 |  |  |  |  |
| [O-][S+]1CCc2nc(N3CCc4c(nn5cc(F)ccc45)C3)nc(NC3(CO)CCC3)c21 (centres unmarked) [Compound 32] | 0.201 | 0.405 | 23.54 | 74.22 | 97.65 |  |  |  |  |
| [O-][S@+]1CCc2nc(N3CCc4sc(I)cc4C3)nc(NC3(CO)CCC3)c21 [Compound 56, (R)-4-((1-(hydroxymethyl)cyclobutyl)amino)-2-(2-iodo-6,7-dihydrothieno[3,2-c]pyridin-5(4H)-yl)-6,7-dihydrothieno[2,2-d]pyrimidine 5-oxide] | 0.998 | 1.95 |  |  |  |  |  | 40.6 | 90.2 |
| [O-][S+]1CCc2nc(N3CCc4cc(Cl)ncc4C3)nc(NC3(CO)CCC3)c21 (centres unmarked) [Compound 78] | 1.82 | 4.02 | 2.20 | 32.09 | 86.33 |  |  |  |  |
| Cn1cnc(-c2ccc3c(c2)CCN(c2nc4c(c(NC5(CO)CCC5)n2)[S+]([O-])CC4)C3)n1 (centres unmarked) [Compound 94] | 0.0712 | 0.125 | 34.83 | 94.09 | 100.44 |  |  |  |  |
| [O-][S+]1CCc2nc(N3CCc4c(ncc5cc(Cl)ccc45)C3)nc(NC3(CO)CCC3)c21 (centres unmarked) [Compound 100] | 0.426 | 1.15 | 6.00 | 47.68 | 97.30 |  |  |  |  |
| COc1nc2c(c3ccc(Cl)cc13)CCN(c1nc3c(c(NC4(CO)CCC4)n1)[S+]([O-])CC3)C2 (centres unmarked) [Compound 99] | 1.24 | 3.14 | 4.18 | 43.68 | 96.53 |  |  |  |  |
| [O-][S+]1CCc2nc(N3CC[C@@H]4c5ccccc5OC[C@H]4C3)nc(NC3(CO)CCC3)c21 (some centres unmarked) [Compound 83] | 0.621 | 1.07 | 5.79 | 47.82 | 97.34 |  |  |  |  |
| Cn1c2c(c3ccc(Cl)cc3c1=O)CCN(c1nc3c(c(NC4(CO)CCC4)n1)[S+]([O-])CC3)C2 (centres unmarked) [Compound 98] | 0.889 | 2.04 | -1.71 | 46.69 | 95.76 |  |  |  |  |
| [O-][S+]1CCc2nc(N3CC[C@@H]4c5cccc(Cl)c5OC[C@H]4C3)nc(NC3(CO)CCC3)c21 (some centres unmarked) [Compound 107] | 1.14 | 2.95 | 2.82 | 52.48 | 98.12 |  |  |  |  |
| [O-][S+]1CCc2nc(N3CCc4cc(Cl)cc(Cl)c4C3)nc(NC3(CO)CCC3)c21 (centres unmarked) [Compound 25] | 0.92 | 2.19 |  |  |  | 23.7 |  |  |  |
| O=c1[nH]c2cc3c(cc2o1)CN(c1nc2c(c(NC4(CO)CCC4)n1)[S@+]([O-])CC2)CC3 [Compound 51, (R)-6-(4-((1-(hydroxymethyl)cyclobutyl)amino)-5-oxido-6,7-dihydrothieno[3,2-d]pyrimidin-2-yl)-5,6,7,8-tetrahydrooxazolo[4,5-g]isoquinolin-2(1H)-one] | 0.596 | 1.18 |  |  |  |  | 17.1 | 38.4 | 70.1 |
| [O-][S+]1CCc2nc(N3Cc4ccc(Br)cc4C3)nc(NC3(CO)CCC3)c21 (centres unmarked) [Compound 59] | 2.12 | 4.75 |  | 42.65 | 85.82 |  |  |  |  |
| [O-][S@+]1CCc2nc(N3CCc4nn5cc(Cl)cnc5c4C3)nc(NC3(CO)CCC3)c21 [Compound 4] | 2.71 | 7.25 |  |  |  | 29.6 |  |  |  |
| O=C(O)Cc1ccc(Nc2nc(N3CCc4cc(Cl)ccc4C3)nc3c2[S@+]([O-])CC3)cc1 [Compound 129] | 0.202 | 0.705 | 6.93 | 39.59 | 72.19 |  |  |  |  |
| [O-][S+]1CCc2nc(N3CCc4cc5c(cc4C3)OCO5)nc(NC3(CO)CCC3)c21 (centres unmarked) [Compound 35] | 1.32 | 3.89 |  |  |  | 46.1 |  |  |  |

Continued, in another order:

| IC50 [1] [nM] | IC50 [2] [nM] | Cell Inhibition% @1 nM ([3]; 1 nM) [%] | Cell Inhibition% @10 nM [3] [%] | Cell Inhibition% @100 nM [3] [%] | IC50 [3] [nM] | inhibition at 0.001 µM ([3]; 1 nM) [%] | Structure (SMILES) | inhibition at 0.01 µM [3] [%] | inhibition at 0.1 µM [3] [%] |
| --- | --- | --- | --- | --- | --- | --- | --- | --- | --- |
| 0.085 | 0.157 | 41.7 | 97.0 | 101.1 |  |  | [O-][S+]1CCc2nc(N3CCc4cc(-c5cnco5)ccc4C3)nc(NC3(CO)CCC3)c21 (centres unmarked) [Compound 85] |  |  |
| 0.332 | 0.655 | 14.20 | 47.36 | 96.42 |  |  | [O-][S+]1CCc2nc(N3CCc4cc(I)ccc4C3)nc(NC3(CO)CCC3)c21 (centres unmarked) [Compound 67] |  |  |
| 0.142 | 0.233 | 19.25 | 86.01 | 99.96 |  |  | [O-][S+]1CCc2nc(N3CCc4cc(-n5cccn5)ccc4C3)nc(NC3(CO)CCC3)c21 (centres unmarked) [Compound 91] |  |  |
| 0.97 | 1.46 |  |  |  | 14.8 |  | COc1ccc2c(c1)CCN(c1nc3c(c(NC4(CO)CCC4)n1)[S+]([O-])CC3)C2 (centres unmarked) [Compound 22] |  |  |
| 0.344 | 0.603 | 14.02 | 61.02 | 94.24 |  |  | CS(=O)(=O)c1ccc2c(c1)CCN(c1nc3c(c(NC4(CO)CCC4)n1)[S+]([O-])CC3)C2 (centres unmarked) [Compound 93] |  |  |
| 0.488 | 0.826 |  | 81.81 | 99.55 |  |  | [O-][S+]1CCc2nc(N3CCc4cc(C(F)(F)F)ccc4C3)nc(NC3(CO)CCC3)c21 (centres unmarked) [Compound 52] |  |  |
| 0.161 | 0.776 | 3.35 | 43.69 | 98.17 |  |  | [O-][S+]1CCc2nc(N3CCc4cc(N5CCCC5)ccc4C3)nc(NC3(CO)CCC3)c21 (centres unmarked) [Compound 92] |  |  |
| 0.55 | 0.88 |  |  |  | 8.11 |  | O=[N+]([O-])c1ccc2c(c1)CCN(c1nc3c(c(NC4(CO)CCC4)n1)[S+]([O-])CC3)C2 (centres unmarked) [Compound 27] |  |  |
